Consider 2 compounds from ChEMBL document CHEMBL2074456, “Estrone and 17beta-estradiol reverse breast cancer resistance protein-mediated multidrug resistance” (Jpn J Cancer Res, 2002).

Data set [1] addresses T1, Broad substrate specificity ATP-binding cassette transporter ABCG2 (Homo sapiens, UniProt Q9UNQ0).
T1 sequence (Q9UNQ0 whole entry): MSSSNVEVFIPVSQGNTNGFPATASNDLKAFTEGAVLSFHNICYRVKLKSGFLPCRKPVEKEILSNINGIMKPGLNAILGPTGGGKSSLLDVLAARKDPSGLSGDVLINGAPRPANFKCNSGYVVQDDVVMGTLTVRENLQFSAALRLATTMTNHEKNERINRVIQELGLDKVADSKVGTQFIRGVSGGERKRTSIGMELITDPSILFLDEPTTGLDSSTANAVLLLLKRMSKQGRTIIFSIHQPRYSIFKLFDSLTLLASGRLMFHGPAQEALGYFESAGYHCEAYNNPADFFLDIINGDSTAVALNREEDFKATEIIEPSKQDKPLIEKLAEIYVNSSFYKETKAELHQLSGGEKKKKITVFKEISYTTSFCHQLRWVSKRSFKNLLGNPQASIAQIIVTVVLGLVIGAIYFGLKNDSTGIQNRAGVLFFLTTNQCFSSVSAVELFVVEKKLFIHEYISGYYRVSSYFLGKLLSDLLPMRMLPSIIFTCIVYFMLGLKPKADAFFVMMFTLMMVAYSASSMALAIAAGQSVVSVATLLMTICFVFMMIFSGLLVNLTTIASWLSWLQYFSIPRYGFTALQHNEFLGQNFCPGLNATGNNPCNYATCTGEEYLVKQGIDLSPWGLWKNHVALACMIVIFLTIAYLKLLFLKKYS
As to the kind of experiment: TP_TRANSPORTER: inhibition of Topotecan efflux (Topotecan: 20 uM, Estrone: 100 uM) in BCRP-expressing K562 cells: flow cytometric analysis. The class given is functional, cell-based. The settings on record: k562, 100 µM. Background: In flow cytometry, cells or beads pass a laser one at a time.

Data set [2] addresses T1, Broad substrate specificity ATP-binding cassette transporter ABCG2. As to the kind of experiment: TP_TRANSPORTER: inhibition of Topotecan efflux (Topotecan: 20 uM, beta-Estradiol: 100 uM) in BCRP-expressing K562 cells: flow cytometric analysis. To be noted: k562, 100 µM. In kind it is functional, cell-based.

On to `C[C@]12CC[C@@H]3c4ccc(O)cc4CC[C@H]3[C@@H]1CCC2=O` [ESTRONE], for which the Activity entry in data set [1] is “inhibitor [+]”.
In the case of `C[C@]12CC[C@@H]3c4ccc(O)cc4CC[C@H]3[C@@H]1CC[C@@H]2O` [ESTRADIOL], the Activity result in data set [2] was “inhibitor [+]”.
